Test results: PMC9186362, “Design and biological evaluation of substituted 5,7-dihydro-6H-indolo[2,3-c]quinolin-6-one as novel selective Haspin inhibitors” (Journal of Enzyme Inhibition and Medicinal Chemistry, 2022)

Key:
Test in all cases: LanthaScreen Binding - Eu-anti-GST
Conditions in all cases: read-out: Percentage of inhibition
STK32C (YANK3) = molecular target: T1, STK32C (YANK3) (Homo sapiens, UniProt Q86UX6)
T1 construct: purchased Life Technologies (SelectScreen Whole Panel)
Protocol: (§1) We further evaluated the selectivity profile of compound 55 on a larger panel of kinases (SelectScreen Whole Panel, Life Technologies). The inhibition profile of 55, evaluated at 1 μM, is depicted on a dendrogram on Figure 3 where kinases inhibited by a minimum of 80% are shown. A full list of the kinases tested is shown on Table S1 in supplementary information.

TGFBR2 = molecular target: T2, TGFBR2 (Homo sapiens, UniProt P37173)
T2 construct: purchased Life Technologies (SelectScreen Whole Panel)
Protocol: as §1

MAP3K11 (MLK3) = molecular target: T3, MAP3K11 (MLK3) (Homo sapiens, UniProt Q16584)
T3 construct: purchased Life Technologies
Protocol: as §1

STK32B (YANK2) = STK32B (YANK2) (Homo sapiens, UniProt Q9NY57)
Protocol: as §1

MAP3K10 (MLK2) = MAP3K10 (MLK2) (Homo sapiens, UniProt Q02779)
Protocol: as §1

ANKK1 = molecular target: T4, ANKK1 (Homo sapiens, UniProt Q8NFD2)
T4 construct: purchased Life Technologies (SelectScreen service)
Protocol: as §1

ACVR2B = ACVR2B (Homo sapiens, UniProt Q13705)
Sequence of ACVR2B (Q13705 19-512): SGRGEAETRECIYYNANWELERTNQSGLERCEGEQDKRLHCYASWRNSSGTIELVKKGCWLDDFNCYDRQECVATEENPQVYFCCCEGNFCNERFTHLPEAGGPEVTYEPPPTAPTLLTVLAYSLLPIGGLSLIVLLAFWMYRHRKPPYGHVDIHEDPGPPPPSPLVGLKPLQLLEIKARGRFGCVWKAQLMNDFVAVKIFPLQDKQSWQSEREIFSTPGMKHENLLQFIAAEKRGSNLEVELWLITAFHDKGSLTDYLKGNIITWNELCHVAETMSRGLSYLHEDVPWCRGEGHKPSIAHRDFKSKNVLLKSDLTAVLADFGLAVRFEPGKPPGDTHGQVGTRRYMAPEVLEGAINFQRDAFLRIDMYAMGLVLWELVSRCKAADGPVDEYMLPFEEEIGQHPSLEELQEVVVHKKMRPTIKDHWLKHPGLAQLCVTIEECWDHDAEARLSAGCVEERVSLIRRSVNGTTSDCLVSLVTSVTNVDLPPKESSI
Protocol: as §1

ZAK = molecular target: T5, ZAK (Homo sapiens, UniProt Q9NYL2)
T5 construct: purchased Life Technologies
Protocol: as §1

KIT Y823D = molecular target: T6, KIT Y823D (Homo sapiens, UniProt P10721, Y823D)
T6 construct: purchased Life Technologies
T6 sequence (P10721 26-976 Y823D): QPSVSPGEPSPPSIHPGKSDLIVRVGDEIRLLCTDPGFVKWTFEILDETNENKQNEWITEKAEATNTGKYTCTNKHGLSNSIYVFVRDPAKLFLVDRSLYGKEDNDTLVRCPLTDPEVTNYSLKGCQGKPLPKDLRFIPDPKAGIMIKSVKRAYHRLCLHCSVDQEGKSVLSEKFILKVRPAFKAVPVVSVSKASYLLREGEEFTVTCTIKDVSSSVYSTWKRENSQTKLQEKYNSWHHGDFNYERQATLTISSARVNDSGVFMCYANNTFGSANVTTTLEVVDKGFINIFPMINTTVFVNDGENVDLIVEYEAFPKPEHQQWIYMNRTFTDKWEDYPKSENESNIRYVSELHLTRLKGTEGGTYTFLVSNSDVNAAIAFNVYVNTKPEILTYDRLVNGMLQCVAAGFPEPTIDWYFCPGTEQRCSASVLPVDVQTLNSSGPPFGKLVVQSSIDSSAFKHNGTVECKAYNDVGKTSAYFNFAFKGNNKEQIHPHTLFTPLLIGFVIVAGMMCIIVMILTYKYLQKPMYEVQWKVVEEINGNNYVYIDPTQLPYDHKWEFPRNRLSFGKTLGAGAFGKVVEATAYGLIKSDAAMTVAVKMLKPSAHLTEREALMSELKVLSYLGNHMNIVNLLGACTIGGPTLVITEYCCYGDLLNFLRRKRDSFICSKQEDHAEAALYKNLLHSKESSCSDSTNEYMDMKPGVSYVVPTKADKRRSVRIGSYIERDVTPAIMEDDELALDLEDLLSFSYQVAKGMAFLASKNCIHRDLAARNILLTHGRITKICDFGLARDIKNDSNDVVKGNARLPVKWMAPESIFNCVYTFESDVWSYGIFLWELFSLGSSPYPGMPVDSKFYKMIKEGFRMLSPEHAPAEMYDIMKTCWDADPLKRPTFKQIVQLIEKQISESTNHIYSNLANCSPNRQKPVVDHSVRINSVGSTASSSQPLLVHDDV
Protocol: as §1

CAMKK2 (CaMKK beta) = molecular target: T7, CAMKK2 (CaMKK beta) (Homo sapiens, UniProt Q96RR4)
T7 construct: purchased Life Technologies (SelectScreen Whole Panel service)
Protocol: as §1

ACVRL1 (ALK1) = molecular target: T8, ACVRL1 (ALK1) (Homo sapiens, UniProt P37023)
T8 construct: purchased Life Technologies (SelectScreen service)
T8 sequence (P37023 22-503): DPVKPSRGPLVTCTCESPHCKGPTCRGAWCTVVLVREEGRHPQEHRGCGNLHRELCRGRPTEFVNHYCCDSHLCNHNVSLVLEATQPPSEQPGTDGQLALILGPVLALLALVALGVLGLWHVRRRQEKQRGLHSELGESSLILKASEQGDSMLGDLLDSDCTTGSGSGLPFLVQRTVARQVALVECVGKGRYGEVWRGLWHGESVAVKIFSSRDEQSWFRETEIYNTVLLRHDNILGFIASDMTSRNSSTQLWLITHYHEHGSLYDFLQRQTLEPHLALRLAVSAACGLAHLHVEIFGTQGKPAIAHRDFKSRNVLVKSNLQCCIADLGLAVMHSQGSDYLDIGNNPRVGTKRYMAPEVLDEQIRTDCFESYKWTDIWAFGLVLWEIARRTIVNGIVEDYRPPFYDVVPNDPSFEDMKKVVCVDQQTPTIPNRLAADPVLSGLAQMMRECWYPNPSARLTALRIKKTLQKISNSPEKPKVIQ
Protocol: as §1

CDK2/cyclin O = CDK2/cyclin O (Homo sapiens, UniProt P24941)
Protocol: as §1

ERN1 = molecular target: T9, ERN1 (Homo sapiens, UniProt O75460)
T9 construct: purchased Life Technologies (SelectScreen Whole Panel service)
Protocol: as §1

RIPK3 = molecular target: T10, RIPK3 (Homo sapiens, UniProt Q9Y572)
T10 construct: purchased Life Technologies (SelectScreen Whole Panel)
Protocol: as §1

PLK4 = molecular target: T11, PLK4 (Homo sapiens, UniProt O00444)
T11 construct: purchased Life Technologies (SelectScreen Whole Panel)
Protocol: as §1

MERTK (cMER) A708S = molecular target: T12, MERTK (cMER) A708S (Homo sapiens, UniProt Q12866, A708S)
T12 construct: purchased Life Technologies
Protocol: as §1

ABL1 M351T = ABL1 M351T (Homo sapiens, UniProt P00519, M351T)
Protocol: as §1

HUNK = HUNK (Homo sapiens, UniProt P57058)
Protocol: as §1

TNIK = TNIK (Homo sapiens, UniProt Q9UKE5)
Protocol: as §1

TAOK1 = molecular target: T13, TAOK1 (Homo sapiens, UniProt Q7L7X3)
T13 construct: purchased Life Technologies
Protocol: as §1

ALK R1275Q = molecular target: T14, ALK R1275Q (Homo sapiens, UniProt Q9UM73, R1275Q)
T14 construct: purchased Life Technologies (SelectScreen service)
Protocol: as §1

ACVR2A = molecular target: T15, ACVR2A (Homo sapiens, UniProt P27037)
T15 construct: purchased Life Technologies (SelectScreen)
Protocol: as §1

CDK14 (PFTK1)/cyclin Y = molecular target: T16, CDK14 (PFTK1)/cyclin Y (Homo sapiens, UniProt O94921)
T16 construct: purchased Life Technologies
T16 sequence (O94921 whole entry): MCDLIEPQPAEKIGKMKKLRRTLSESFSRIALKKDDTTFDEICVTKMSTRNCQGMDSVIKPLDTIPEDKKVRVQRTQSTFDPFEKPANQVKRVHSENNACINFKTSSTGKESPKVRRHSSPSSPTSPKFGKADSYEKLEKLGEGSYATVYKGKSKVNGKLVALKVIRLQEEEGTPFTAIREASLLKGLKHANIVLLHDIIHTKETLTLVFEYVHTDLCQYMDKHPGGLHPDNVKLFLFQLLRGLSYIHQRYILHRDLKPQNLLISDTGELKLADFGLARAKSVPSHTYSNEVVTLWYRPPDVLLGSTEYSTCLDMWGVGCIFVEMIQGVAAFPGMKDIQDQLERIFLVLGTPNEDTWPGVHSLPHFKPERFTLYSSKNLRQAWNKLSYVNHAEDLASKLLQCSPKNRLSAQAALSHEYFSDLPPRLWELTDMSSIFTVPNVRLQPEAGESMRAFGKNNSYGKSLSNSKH
T16 sequence (Q8ND76 whole entry partner): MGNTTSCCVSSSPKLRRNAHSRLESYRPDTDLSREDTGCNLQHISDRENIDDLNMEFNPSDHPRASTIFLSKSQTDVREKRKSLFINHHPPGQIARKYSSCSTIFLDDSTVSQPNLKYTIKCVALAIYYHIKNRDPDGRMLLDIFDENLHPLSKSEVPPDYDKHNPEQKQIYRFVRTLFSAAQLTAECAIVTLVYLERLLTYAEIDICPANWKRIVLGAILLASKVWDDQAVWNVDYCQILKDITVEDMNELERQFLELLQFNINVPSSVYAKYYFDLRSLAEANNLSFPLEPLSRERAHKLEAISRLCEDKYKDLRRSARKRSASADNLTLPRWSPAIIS
Protocol: as §1

RET M918T = molecular target: T17, RET M918T (Homo sapiens, UniProt P07949, M918T)
T17 construct: purchased Life Technologies
Protocol: as §1

ULK2 = molecular target: T18, ULK2 (Homo sapiens, UniProt Q8IYT8)
T18 construct: purchased Life Technologies (SelectScreen service)
T18 sequence (Q8IYT8 whole entry): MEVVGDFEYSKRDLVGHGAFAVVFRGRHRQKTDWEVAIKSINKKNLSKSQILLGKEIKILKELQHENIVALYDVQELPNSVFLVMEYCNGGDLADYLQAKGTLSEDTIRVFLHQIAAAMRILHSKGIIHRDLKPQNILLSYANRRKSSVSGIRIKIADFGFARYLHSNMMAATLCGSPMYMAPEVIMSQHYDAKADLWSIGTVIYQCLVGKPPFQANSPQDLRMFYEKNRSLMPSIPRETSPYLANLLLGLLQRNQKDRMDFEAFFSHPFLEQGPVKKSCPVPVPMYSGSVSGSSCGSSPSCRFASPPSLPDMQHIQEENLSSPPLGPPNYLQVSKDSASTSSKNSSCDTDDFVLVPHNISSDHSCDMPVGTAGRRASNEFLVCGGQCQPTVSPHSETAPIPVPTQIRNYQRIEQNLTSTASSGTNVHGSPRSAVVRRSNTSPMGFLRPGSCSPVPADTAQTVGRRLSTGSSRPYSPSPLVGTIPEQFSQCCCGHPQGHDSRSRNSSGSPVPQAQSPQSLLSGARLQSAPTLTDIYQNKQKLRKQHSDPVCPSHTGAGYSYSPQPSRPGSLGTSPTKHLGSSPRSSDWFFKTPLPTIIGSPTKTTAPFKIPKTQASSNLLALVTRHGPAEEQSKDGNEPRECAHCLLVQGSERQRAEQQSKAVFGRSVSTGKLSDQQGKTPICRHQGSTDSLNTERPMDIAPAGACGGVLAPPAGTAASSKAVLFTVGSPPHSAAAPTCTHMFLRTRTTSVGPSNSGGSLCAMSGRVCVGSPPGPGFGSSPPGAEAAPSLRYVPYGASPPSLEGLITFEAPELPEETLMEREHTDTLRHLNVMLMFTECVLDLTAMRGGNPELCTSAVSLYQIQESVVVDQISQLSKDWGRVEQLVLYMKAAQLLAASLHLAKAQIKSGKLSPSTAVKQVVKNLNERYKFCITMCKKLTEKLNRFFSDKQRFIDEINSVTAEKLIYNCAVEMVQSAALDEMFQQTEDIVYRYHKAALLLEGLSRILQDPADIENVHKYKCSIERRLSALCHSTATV
Protocol: as §1

BRSK2 = molecular target: T19, BRSK2 (Homo sapiens, UniProt Q8IWQ3)
T19 construct: purchased Life Technologies (SelectScreen Whole Panel service)
T19 sequence (Q8IWQ3 whole entry): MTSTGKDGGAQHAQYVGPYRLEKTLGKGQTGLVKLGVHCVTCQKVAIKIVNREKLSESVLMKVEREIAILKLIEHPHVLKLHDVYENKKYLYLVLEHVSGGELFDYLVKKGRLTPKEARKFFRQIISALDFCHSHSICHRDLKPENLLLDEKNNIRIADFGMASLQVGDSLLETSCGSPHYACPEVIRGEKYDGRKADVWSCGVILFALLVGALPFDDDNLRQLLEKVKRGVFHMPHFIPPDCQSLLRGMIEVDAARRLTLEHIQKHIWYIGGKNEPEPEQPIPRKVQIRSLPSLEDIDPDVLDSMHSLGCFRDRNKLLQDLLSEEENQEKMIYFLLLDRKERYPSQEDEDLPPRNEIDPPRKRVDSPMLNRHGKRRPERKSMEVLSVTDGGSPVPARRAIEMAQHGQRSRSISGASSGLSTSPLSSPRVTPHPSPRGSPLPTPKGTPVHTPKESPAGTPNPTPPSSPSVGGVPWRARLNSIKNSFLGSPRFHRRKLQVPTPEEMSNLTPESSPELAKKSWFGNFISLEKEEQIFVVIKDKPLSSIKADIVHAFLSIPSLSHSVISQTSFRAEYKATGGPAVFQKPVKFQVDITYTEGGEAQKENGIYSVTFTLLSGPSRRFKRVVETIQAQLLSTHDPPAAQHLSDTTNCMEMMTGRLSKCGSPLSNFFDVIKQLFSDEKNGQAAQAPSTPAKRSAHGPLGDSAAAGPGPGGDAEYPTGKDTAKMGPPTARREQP
Protocol: as §1

TGFBR1 (ALK5) = molecular target: T20, TGFBR1 (ALK5) (Homo sapiens, UniProt P36897)
T20 construct: purchased Life Technologies (SelectScreen Whole Panel service)
Protocol: as §1

NEK8 = molecular target: T21, NEK8 (Homo sapiens, UniProt Q86SG6)
T21 construct: purchased Life Technologies (SelectScreen Whole Panel service)
Protocol: as §1

TNK2 (ACK) = TNK2 (ACK) (Homo sapiens, UniProt Q07912)
Protocol: as §1

ALK F1174L = molecular target: T22, ALK F1174L (Homo sapiens, UniProt Q9UM73, F1174L)
T22 construct: purchased Life Technologies
Protocol: as §1

STK38L (NDR2) = molecular target: T23, STK38L (NDR2) (Homo sapiens, UniProt Q9Y2H1)
T23 construct: purchased Life Technologies (SelectScreen)
Protocol: as §1

EGFR (ErbB1) d746-750 = molecular target: T24, EGFR (ErbB1) d746-750 (Homo sapiens, UniProt P00533, DEL746-750)
T24 construct: purchased Life Technologies
T24 sequence (P00533 with tags, fused parts or gaps DEL746-750 limits assumed): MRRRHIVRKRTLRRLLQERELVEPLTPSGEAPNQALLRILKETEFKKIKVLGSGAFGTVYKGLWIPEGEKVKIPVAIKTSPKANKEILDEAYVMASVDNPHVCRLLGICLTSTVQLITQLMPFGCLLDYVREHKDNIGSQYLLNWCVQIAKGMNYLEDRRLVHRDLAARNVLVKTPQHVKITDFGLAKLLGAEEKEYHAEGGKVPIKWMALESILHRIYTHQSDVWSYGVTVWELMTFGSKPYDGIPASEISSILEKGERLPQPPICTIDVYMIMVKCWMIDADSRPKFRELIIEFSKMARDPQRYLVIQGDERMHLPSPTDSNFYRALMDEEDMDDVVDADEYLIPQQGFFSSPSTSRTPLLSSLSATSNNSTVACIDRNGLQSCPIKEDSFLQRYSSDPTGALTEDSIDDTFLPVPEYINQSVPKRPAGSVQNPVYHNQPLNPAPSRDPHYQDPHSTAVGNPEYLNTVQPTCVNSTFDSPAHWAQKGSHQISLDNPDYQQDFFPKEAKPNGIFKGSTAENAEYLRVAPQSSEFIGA
Protocol: as §1

BMPR1A (ALK3) = BMPR1A (ALK3) (Homo sapiens, UniProt P36894)
Protocol: as §1

PRKACB (PRKAC beta) = molecular target: T25, PRKACB (PRKAC beta) (Homo sapiens, UniProt P22694)
T25 construct: purchased Life Technologies
Protocol: as §1

TTK = molecular target: T26, TTK (Homo sapiens, UniProt P33981)
T26 construct: purchased Life Technologies
Protocol: as §1

[1] = molecular target: T27, EGFR (ErbB1) d747-749 A750P (Homo sapiens, UniProt P00533, A750P/DEL747-749)
T27 construct: purchased Life Technologies
Protocol: as §1

FGFR1 V561M = FGFR1 V561M (Homo sapiens, UniProt P11362, V561M)
Protocol: as §1

AAK1 = molecular target: T28, AAK1 (Homo sapiens, UniProt Q2M2I8)
T28 construct: purchased Life Technologies
Protocol: as §1

ICK = ICK (Homo sapiens, UniProt Q9UPZ9)
Protocol: as §1

COc1ccc2[nH]c3c(=O)[nH]c4ccc(O)cc4c3c2c1 [Compound 55, 2-Hydroxy-10-methoxy-5,7-dihydro-6H-indolo[2,3-c]quinolin-6-one]
inhibition at 1 µM (STK32C (YANK3)): 1% | inhibition at 1 µM (TGFBR2): 102% | inhibition at 1 µM (MAP3K11 (MLK3)): 36% | inhibition at 1 µM (STK32B (YANK2)): 7% | inhibition at 1 µM (MAP3K10 (MLK2)): 20% | inhibition at 1 µM (ANKK1): 90% | inhibition at 1 µM (ACVR2B): 21% | inhibition at 1 µM (ZAK): 4% | inhibition at 1 µM (KIT Y823D): 30% | inhibition at 1 µM (CAMKK2 (CaMKK beta)): 10% | inhibition at 1 µM (ACVRL1 (ALK1)): 25% | inhibition at 1 µM (CDK2/cyclin O): 61% | inhibition at 1 µM (ERN1): 16% | inhibition at 1 µM (RIPK3): -6% | inhibition at 1 µM (PLK4): 50% | inhibition at 1 µM (MERTK (cMER) A708S): 31% | inhibition at 1 µM (ABL1 M351T): 60% | inhibition at 1 µM (HUNK): 20% | inhibition at 1 µM (TNIK): 61% | inhibition at 1 µM (TAOK1): 35% | inhibition at 1 µM (ALK R1275Q): 23% | inhibition at 1 µM (ACVR2A): 8% | inhibition at 1 µM (CDK14 (PFTK1)/cyclin Y): 35% | inhibition at 1 µM (RET M918T): 94% | inhibition at 1 µM (ULK2): 25% | inhibition at 1 µM (BRSK2): 15% | inhibition at 1 µM (TGFBR1 (ALK5)): 10% | inhibition at 1 µM (NEK8): 16% | inhibition at 1 µM (TNK2 (ACK)): 15% | inhibition at 1 µM (ALK F1174L): 33% | inhibition at 1 µM (STK38L (NDR2)): 8% | inhibition at 1 µM (EGFR (ErbB1) d746-750): 34% | inhibition at 1 µM (BMPR1A (ALK3)): 6% | inhibition at 1 µM (PRKACB (PRKAC beta)): 35% | inhibition at 1 µM (TTK): 42% | inhibition at 1 µM [1]: 34% | inhibition at 1 µM (FGFR1 V561M): 60% | inhibition at 1 µM (AAK1): 97% | inhibition at 1 µM (ICK): 57%
